Reference: US9943485B2, “Bioactive compounds protection method and compositions containing the same” (priority 2003, dated 2018)

Tests used:
[1] = Effects of dietary insulin in milk replacer on weight gain in bovine neonates; type: in vivo, Friesy and Charole' calves; conditions: calves, 600 MicroUnits insulin/cc of liquid milk replacer
Text: 100 Friesy and Charole' calves in ages 12-15 days from birth, were used. Each calf received a milk replacer, of up to 6 liters a day, until the 37th day from birth. From the 37th day, milk replacer quantity was reduced by 0.5 liters every 2 days while simultaneously, pellet quantity increased, until the calf's 57 days old, when it is considered fully weaned. Calves in the experimental group receive 600 MicroUnits/cc. of liquid milk replacer. Calves in the control group receive no insulin at all. Daily growth in grams per each 1 Kg. of birth weight was measured and calculated for each calf.

[2] = Effects of feed formula enriched with encapsulated insulin on lambs' weight gain, disease incidence and death rate; type: in vivo, Assaf specie lambs; conditions: one study
Text: More than 1,000 Assaf specie lambs over a period of 12 months at the age of 2-3 days from birth, were used. The growing period was divided into two periods: 3-28 days from birth, during which the lambs were exclusively fed by a milk replacer; and 29-75 days from birth, during which the lambs were fed by post-weaning mix/mash. Lambs in the study groups received between 600 MicroUnits-3,000 MicroUnits of insulin/ml. of milk replacer, and between 1,600 MicroUnits-5,000 MicroUnits of insulin/gr. of mix/mash.
A liquid blend, of 4 Kilograms of Maltodextrin, 40 Liters of Saline 0.9% and 100,000 IU (International Units) of insulin was blended (e.g., 25 IU insulin per 1 g of Maltodextrin). The liquid blend was then freeze-dried. The product of the process was maltodextrin encapsulated insulin. 97% of the bioactive properties of the insulin were maintained after the freeze-drying process. A premix of 10 Kg. was prepared from standard milk powder and the maltodextrin encapsulated insulin. The premix was then blended with 740 Kg. of standard milk replacer product, to generate 750 Kg. of insulin enriched commercial milk replacer.

insulin
average daily weight growth in grams per each Kg. of birth weight ([1]; at the end of the study period): 22.47 g/Kg birth weight
more weight gained compared with the control group ([1]; between day 17 and day 67 after birth): up to 26%
lambs survived at marketing ([2]; insulin fed group started with 70 newly born lambs, 150 days after birth): 68 lambs
death rate ([2]; insulin fed group, 70 lambs, at marketing (150 days after birth)): 2.8%
death rate lower compared with the control group ([2]; insulin-fed group 2.8% vs control 11.6% death rate): 74.8%
